As a reminder, the pIC50 is −log10 of the IC50, conventionally taken in molar units. The low end stands for a large IC50, the high end for a small IC50.

pIC50: −log10 of the molar value. Some results are limits rather than exact numbers.

The target of the assay is T1, RORγ (Homo sapiens, UniProt P51449).
T1 sequence (P51449 269-508 limits assumed): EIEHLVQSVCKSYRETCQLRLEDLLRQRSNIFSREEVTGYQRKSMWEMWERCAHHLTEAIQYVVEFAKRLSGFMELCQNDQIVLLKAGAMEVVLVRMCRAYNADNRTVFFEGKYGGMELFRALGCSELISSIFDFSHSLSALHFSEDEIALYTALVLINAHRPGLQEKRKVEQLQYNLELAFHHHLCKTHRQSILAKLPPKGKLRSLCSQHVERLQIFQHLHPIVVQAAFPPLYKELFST
Put plainly: RORγ GAL4 reporter gene assay. The settings on record: mean pIC50, inhibition of RORγ (GAL4-RORγ-LBD) in 293FT cells, luciferase readout, overnight incubation. In general terms: In a reporter assay the amount or activity of a reporter protein is the signal.
Excerpt: The RORγ ligand-binding domain (LBD) was fused to the yeast GAL4 DNA binding domain (DBD) and placed under the control of the human cytomegalovirus (CMV) immediate early promoter, using expression vector pFN26A (Promega) and standard recombinant DNA cloning methods.
To monitor the inhibitory effect of compounds on RORγ, a transcriptional reporter construct was used. The pGL4.35 vector (Promega) contains nine copies of the GAL4 Upstream Activator Sequence (UAS). This sequence drives the transcription of the luciferase reporter gene luc2P in response to binding of a fusion protein containing the GAL4 DNA binding domain, as for example expressed by the GAL4-RORγ-LBD and GAL4-VP16 expression vectors described above.
The day after transfection, cells were plated into 96 well plates, test compound was added and the plates were incubated overnight. Subsequently, the firefly luciferase activity was quantified using luciferase detection reagent and luminescence readout.
1500 μL of this reagent mixture was added to 5 μg of GAL4 fusion protein expression vector and 5 μg of the transcriptional reporter construct, and incubated at RT for 20 minutes.
Subsequently, the cells were washed with Phosphate Buffered Saline (PBS) (Lonza), after which the PBS was removed. To dissociate the cells, 1 ml of TrypLE Express (Invitrogen) was added to the flask, followed by incubation at RT until the cells visually started to detach. Cells were collected in 5 mL of assay medium (DMEM culture medium (Lonza), 10% dialyzed FBS (Invitrogen) and Pen/Strep (Lonza)) to achieve a single cell suspension. 10×10^6 cells were spun down and re-suspended in 10 mL of assay medium. Subsequently, the cell suspension was added to the transfection mix tube, and then transferred as a whole to a T75 flask (Greiner), followed by overnight (16-24 hours) incubation at 37° C. and 5% CO2.
For compound screening, the cells were harvested (as described above) and counted. […] 80 μL of cell suspension (60,000 cells) was plated per well into a white, flat bottom, tissue culture treated, 96 well screening plates (Greiner).
Test compounds were diluted, starting from a 10 mM dimethylsulfoxide (DMSO) stock solution, to serial dilutions in DMSO at 500× the final test concentration. Subsequently, these solutions were diluted to 5× the final test concentration in two 10-fold-dilution steps in assay medium. The final DMSO concentration of the 5× test compound solution was 1%. 20 μL of the 5× test compound solution was added to each test well of the 96 well plate previously plated with 80 μl cell suspension, resulting in the final test concentration with 0.2% DMSO.
The plates were incubated overnight (16-24 hours) at 37° C. and 5% CO2.
For the luciferase readout, the luciferase reagent (Britelite Plus, Perkin Elmer) was brought to RT. […] The luciferase luminescence signal was measured using a Wallac Victor Microplate Reader (Perkin Elmer).
The half maximum inhibitory concentration (IC50) values for the test compounds were calculated from the luciferase signal using GraphPad Prism software (GraphPad Software).
Compound `CCS(=O)(=O)c1ccc(CC(=O)Nc2ccc(C(O)(C(F)(F)F)C(F)(F)F)cc2F)cc1` [Example 28, 2-(4-(ethylsulfonyl)phenyl)-N-(2-fluoro-4-(1,1,1,3,3,3-hexafluoro-2-hydroxypropan-2-yl)phenyl)acetamide] had a pIC50 of at least 6.00.

Turning to `CC(C)(C)CC(O)(c1ccc(NC(=O)Cc2ccc(S(=O)(=O)CC3CC3)cc2)cc1)C(F)(F)F` (stereo not shown) [Example 82, 2-(4-((cyclopropylmethyl)sulfonyl)phenyl)-N-(4-(1,1,1-trifluoro-2-hydroxy-4,4-dimethylpentan-2-yl)phenyl)acetamide], the negative-log IC50 (pIC50) is at least 8.00.

With `CCS(=O)(=O)c1ccc(CC(=O)Nc2ccc(C(O)(C(F)(F)F)C(F)(F)F)cn2)cc1` [Example 21, 2-(4-(ethylsulfonyl)phenyl)-N-(5-(1,1,1,3,3,3-hexafluoro-2-hydroxypropan-2-yl)pyridin-2-yl)acetamide], the negative logarithm of the IC50 (pIC50) was at least 6.00.

On to `O=C(Cc1cccc(S(=O)(=O)NC2CC2)c1)Nc1ccc(C(O)(C(F)(F)F)C(F)(F)F)cc1F` [Example 40, 2-(3-(N-cyclopropylsulfamoyl)phenyl)-N-(2-fluoro-4-(1,1,1,3,3,3-hexafluoro-2-hydroxypropan-2-yl)phenyl)acetamide], for which the pIC50 was at least 6.00.

In the case of `CCS(=O)(=O)c1ccc(CC(=O)Nc2ccc(C(O)(C(C)C)C(F)(F)F)cc2)cc1` (stereo not shown) [Example 65, 2-(4-(ethylsulfonyl)phenyl)-N-(4-(1,1,1-trifluoro-2-hydroxy-3-methylbutan-2-yl)phenyl)acetamide], the pIC50 was at least 6.00.

Compound `CCS(=O)(=O)c1ccc(CC(=O)Nc2ccc(C(O)(C3CCCC3)C(F)(F)F)cc2)cc1` (stereo not shown) [Example 85, N-(4-(1-cyclopentyl-2,2,2-trifluoro-1-hydroxyethyl)phenyl)-2-(4-(ethylsulfonyl)phenyl)acetamide] showed a pIC50 of at least 6.00.

In turn, `CCCS(=O)(=O)c1ccc(CC(=O)Nc2ccc(C(O)(C(F)(F)F)C(F)(F)F)cc2)cc1` [Example 4, N-(4-(1,1,1,3,3,3-hexafluoro-2-hydroxypropan-2-yl)phenyl)-2-(4-(propylsulfonyl)phenyl)acetamide] showed a pIC50 of at least 6.00.

As to `O=C(Cc1ccc(S(=O)(=O)CC2CC2)cc1)Nc1ccc(C(OCCC2CC2)(C(F)(F)F)C(F)(F)F)cc1` [Example 58, N-(4-(2-(2-cyclopropylethoxy)-1,1,1,3,3,3-hexafluoropropan-2-yl)phenyl)-2-(4-((cyclopropylmethyl)sulfonyl)phenyl)acetamide], the negative-log IC50 (pIC50) is at least 6.00.

As to `O=C(Cc1ccc(S(=O)(=O)CC2CC2)cc1)Nc1ccc(C(OCC(F)(F)F)(C(F)(F)F)C(F)(F)F)cc1` [Example 113, 2-(4-((cyclopropylmethyl)sulfonyl)phenyl)-N-(4-(1,1,1,3,3,3-hexafluoro-2-(2,2,2-trifluoroethoxy)propan-2-yl)phenyl)acetamide], the negative logarithm of the IC50 (pIC50) was at least 7.00.

Regarding `O=C(Cc1ccc(S(=O)(=O)CC2CC2)cc1)Nc1ccc(C(O)(CC2CCCCC2)C(F)(F)F)cc1` (stereo not shown) [Example 69, N-(4-(3-cyclohexyl-1,1,1-trifluoro-2-hydroxypropan-2-yl)phenyl)-2-(4-((cyclopropylmethyl)sulfonyl)phenyl)acetamide], the pIC50 is at least 7.00.

Compound `O=C(Nc1ccc(C(O)(C(F)(F)F)C(F)(F)F)cc1)C(O)c1ccc(S(=O)(=O)CC2CC2)cc1` (stereo not shown) [Example 114, 2-(4-((cyclopropylmethyl)sulfonyl)phenyl)-N-(4-(1,1,1,3,3,3-hexafluoro-2-hydroxypropan-2-yl)phenyl)-2-hydroxyacetamide] had a pIC50 of at least 7.00.

`CCS(=O)(=O)c1ccc(CC(=O)Nc2ccc(C(O)(C(F)(F)F)C(F)(F)F)c(C)c2)cc1` [Example 29, 2-(4-(ethylsulfonyl)phenyl)-N-(4-(1,1,1,3,3,3-hexafluoro-2-hydroxypropan-2-yl)-3-methylphenyl)acetamide] showed a pIC50 of at least 7.00.

For the compound `CCCCC(O)(c1ccc(NC(=O)Cc2ccc(S(=O)(=O)CC3CC3)cc2)cc1)C(F)(F)F` (stereo not shown) [Example 64, 2-(4-((cyclopropylmethyl)sulfonyl)phenyl)-N-(4-(1,1,1-trifluoro-2-hydroxyhexan-2-yl)phenyl)acetamide], the pIC50 is at least 8.00.

As to `CC(C)CCC(O)(c1ccc(NC(=O)Cc2ccc(S(=O)(=O)CC3CC3)cc2)cc1)C(F)(F)F` (stereo not shown) [Example 104, 2-(4-((cyclopropylmethyl)sulfonyl)phenyl)-N-(4-(1,1,1-trifluoro-2-hydroxy-5-methylhexan-2-yl)phenyl)acetamide], the pIC50 is at least 7.00.

The compound `O=C(Cc1ccc(S(=O)(=O)CC2CC2)cc1)Nc1ccc(C(O)(C2CC2)C2CC2)cc1` [Example 106, 2-(4-((cyclopropylmethyl)sulfonyl)phenyl)-N-(4-(dicyclopropyl(hydroxy)methyl)phenyl)acetamide] had a pIC50 of at least 7.00.

For the compound `CCS(=O)(=O)c1ccc(CC(=O)Nc2ccc(C(O)(CC3CCCC3)C(F)(F)F)cc2)cc1` (stereo not shown) [Example 86, N-(4-(3-cyclopentyl-1,1,1-trifluoro-2-hydroxypropan-2-yl)phenyl)-2-(4-(ethylsulfonyl)phenyl)acetamide], the negative-log IC50 (pIC50) is at least 6.00.

`CCS(=O)(=O)c1ccc(CC(=O)Nc2ccc(C(O)(C(F)(F)F)C(F)(F)F)cc2)cc1F` [Example 42, 2-(4-(ethylsulfonyl)-3-fluorophenyl)-N-(4-(1,1,1,3,3,3-hexafluoro-2-hydroxypropan-2-yl)phenyl)acetamide] showed a pIC50 of at least 6.00.

For the compound `Cc1cc(NC(=O)Cc2ccc(S(=O)(=O)NC3CC3)cc2)ccc1C(O)(C(F)(F)F)C(F)(F)F` [Example 32, 2-(4-(N-cyclopropylsulfamoyl)phenyl)-N-(4-(1,1,1,3,3,3-hexafluoro-2-hydroxypropan-2-yl)-3-methylphenyl)acetamide], the pIC50 is at least 7.00.

`CCCOC(c1ccc(NC(=O)Cc2ccc(S(=O)(=O)CC3CC3)cc2)cc1)(C(F)(F)F)C(F)(F)F` [Example 60, 2-(4-((cyclopropylmethyl)sulfonyl)phenyl)-N-(4-(1,1,1,3,3,3-hexafluoro-2-propoxypropan-2-yl)phenyl)acetamide] gave a pIC50 of at least 8.00.

`O=C(Nc1ccc(C(O)(C(F)(F)F)C(F)(F)F)cc1)C(=O)c1ccc(S(=O)(=O)CC2CC2)cc1` [Example 102, 2-(4-((cyclopropylmethyl)sulfonyl)phenyl)-N-(4-(1,1,1,3,3,3-hexafluoro-2-hydroxypropan-2-yl)phenyl)-2-oxoacetamide] showed a pIC50 of at least 6.00.

On to `CCOC(c1ccc(NC(=O)Cc2ccc(S(=O)(=O)CC3CC3)cc2)cc1)(C(F)(F)F)C(F)(F)F` [Example 53, 2-(4-((cyclopropylmethyl)sulfonyl)phenyl)-N-(4-(2-ethoxy-1,1,1,3,3,3-hexafluoropropan-2-yl)phenyl)acetamide], for which the negative-log IC50 (pIC50) is at least 7.00.

Regarding `O=C(Cc1cccc(S(=O)(=O)NC2CC2)c1)Nc1ccc(C(O)(C(F)(F)F)C(F)(F)F)cc1` [Example 12, 2-(3-(N-cyclopropylsulfamoyl)phenyl)-N-(4-(1,1,1,3,3,3-hexafluoro-2-hydroxypropan-2-yl)phenyl)acetamide], the pIC50 was at least 6.00.

Take `O=C(Cc1ccc(S(=O)(=O)CC2CC2)cc1)Nc1ccc(C(O)(CC2CCCC2)C(F)(F)F)cc1` (stereo not shown) [Example 68, N-(4-(3-cyclopentyl-1,1,1-trifluoro-2-hydroxypropan-2-yl)phenyl)-2-(4-((cyclopropylmethyl)sulfonyl)phenyl)acetamide]: the negative-log IC50 (pIC50) is at least 7.00.

The compound `CCCCOC(c1ccc(NC(=O)Cc2ccc(S(=O)(=O)CC3CC3)cc2)cc1)(C(F)(F)F)C(F)(F)F` [Example 52, N-(4-(2-butoxy-1,1,1,3,3,3-hexafluoropropan-2-yl)phenyl)-2-(4-((cyclopropylmethyl)sulfonyl)phenyl)acetamide] had a negative logarithm of the IC50 (pIC50) of at least 7.00.

For `CC(O)(c1ccc(NC(=O)Cc2ccc(S(=O)(=O)CC3CC3)cc2)cc1)C(F)(F)F` (stereo not shown) [Example 71, 2-(4-((cyclopropylmethyl)sulfonyl)phenyl)-N-(4-(1,1,1-trifluoro-2-hydroxypropan-2-yl)phenyl)acetamide], the negative-log IC50 (pIC50) is at least 7.00.

In turn, `CC(C)C(O)(c1ccc(NC(=O)Cc2ccc(S(=O)(=O)NC3CC3)cc2)cc1)C(F)(F)F` (stereo not shown) [Example 95, 2-(4-(N-cyclopropylsulfamoyl)phenyl)-N-(4-(1,1,1-trifluoro-2-hydroxy-3-methylbutan-2-yl)phenyl)acetamide] gave a negative logarithm of the IC50 (pIC50) of at least 6.00.

`CCCCC(O)(c1ccc(NC(=O)Cc2ccc(S(=O)(=O)CC)cc2)cc1)C(F)(F)F` (stereo not shown) [Example 72, 2-(4-(ethylsulfonyl)phenyl)-N-(4-(1,1,1-trifluoro-2-hydroxyhexan-2-yl)phenyl)acetamide]: the negative logarithm of the IC50 (pIC50) is at least 6.00.

As to `CNS(=O)(=O)c1ccc(CC(=O)Nc2ccc(C(O)(C(F)(F)F)C(F)(F)F)cc2)cc1` [Example 6, N-(4-(1,1,1,3,3,3-hexafluoro-2-hydroxypropan-2-yl)phenyl)-2-(4-(N-methylsulfamoyl)phenyl)acetamide], the pIC50 is at least 6.00.

With `CCS(=O)(=O)c1ccc(CC(=O)Nc2ccc(C(O)(c3ccccc3)C(F)(F)F)cc2)cc1` (stereo not shown) [Example 97, 2-(4-(ethylsulfonyl)phenyl)-N-(4-(2,2,2-trifluoro-1-hydroxy-1-phenylethyl)phenyl)acetamide], the pIC50 is at least 6.00.

`CCS(=O)(=O)c1ccc(CC(=O)Nc2ccc(C(O)(C(F)(F)F)C(F)(F)F)c(Cl)c2)cc1` [Example 84, N-(3-chloro-4-(1,1,1,3,3,3-hexafluoro-2-hydroxypropan-2-yl)phenyl)-2-(4-(ethylsulfonyl)phenyl)acetamide] showed a negative logarithm of the IC50 (pIC50) of at least 6.00.

Compound `Cc1cc(NC(=O)Cc2ccc(S(=O)(=O)CC3CC3)cc2)ccc1C(O)(C(F)(F)F)C(F)(F)F` [Example 44, 2-(4-((cyclopropylmethyl)sulfonyl)phenyl)-N-(4-(1,1,1,3,3,3-hexafluoro-2-hydroxypropan-2-yl)-3-methylphenyl)acetamide] had a pIC50 of at least 8.00.

The values are drawn from US9738600B2, “ROR gamma (RORγ) modulators” (LEAD PHARMA CEL MODELS IP B.V., priority 2013, dated 2017).
